Test results as given in patent US11970542B2, “Bispecific antibodies specific for treating hematological malignancies” (FRED HUTCHINSON CANCER CENTER, priority 2017, dated 2024).

Key:
[1] = system: surface BCMA on MM cell lines (RPMI8226, U266B1, MM1.R, H929) and primary MM samples; assay: Effect of GSI on BCMA expression, flow cytometry; type: cell-based, human
Description: FIGS. 11A-11D. Dose dependent effect of the gamma secretase inhibitor, R04929097, on BCMA expression on 4 MM cell lines (11A, 11B) and 7 primary MM samples (11C, 11D). (11A) Surface BCMA expression by MM.1R cells cultured with the indicated concentrations of R04929097; staining with anti-BCMA antibody (black lines) compared to isotype control (grey line). (11B) Fold-change in surface BCMA expression by MM cell lines when cultured with the indicated concentrations of R04929097; fold change indicated relative to untreated MM cells of the same line. (11C) Surface BCMA expression by primary patient MM cells cultured with the indicated concentrations of R04929097. Staining was as described in regard to FIG. 11A. (11D) Fold change in BCMA on primary myeloma cells (n=7) cultured with vary amounts of GSI for […]. Primary and cell lines were cultured at 0.5×10^6 cells/mL. Fold change in BCMA is defined as Treated (MFIBCMA-MFIiso)/Control (MFIBCMA-MFIiso). Data is representative of 3 independent experiments with T cells derived from different donors.
The effect of GSI on BCMA expression was evaluated by incubating four MM cell lines (RPMI8226, U266B1, MM1.R, and H929) and primary MM samples in media containing 0 (DMSO), 0.01, 0.1, and 1.0 μM of GSI and measuring surface BCMA at 5 hr. […] These concentrations are 3-30 fold below the serum levels that are achieved by well tolerated oral dosing regimens of GSI in phase 1 trials in cancer patients.

[2] = system: surface BCMA on three multiple myeloma cells lines; assay: Antibody Binding Capacity assay (QuantiBrite), BCMA molecules; type: cell-based, human; settings: 5 μM, 17 hours incubation
Method: FIG. 13. Antibody Binding Capacity assay (QuantiBrite, Cat. No. 340495, BD Biosciences) was used according to manufacturer instructions to measure the absolute number of BCMA molecules on the self-surface and accessible to antibody binding following 17 hours incubation in the presence or absence of 5 μM gamma secretase inhibitor (R04929097) on three multiple myeloma cells lines.

[3] = Blood clearance time course of BCMA bispecific with or without GSI; design: species or system mice; settings: mouse, in vivo
Description: FIG. 15. To ensure our clearing agent was able to effectively clear unbound agent from the blood stream, we conducted a time course experiment to test the impact of the clearing agent on the BCMA bispecific in the presence or absence of GSI. The percent of the injected dose (% ID) was monitored in the blood during a time course experiment by measuring the relative amount of Yttrium^90 in blood samples obtained from mice.

[4] = system: CD38 receptor expression in MM cell lines (U266, H929 and L363); assay: ATRA effect on CD38 receptor expression in vitro; type: cell-based, human
Description: FIG. 12. […] These studies generated data to refine the process of manipulating CD38 receptor density for the purpose of increasing targeted delivery of radiolabeled DOTA-biotin after CD38 tumor cell pretargeting.

[5] = system: surface CD38 on three multiple myeloma cells lines; assay: Antibody Binding Capacity assay (QuantiBrite), CD38 molecules; type: cell-based, human; settings: 65-72 hours treatment
Method: FIG. 14. Antibody Binding Capacity assay (QuantiBrite, BD Biosciences) was used according to manufacturer instructions to measure the absolute number of CD38 molecules on the self-surface and accessible to antibody binding following 65-72 hours treatment of ATRA on three multiple myeloma cells lines.

| blood clearance of BCMA bispecific fusion in combination with GSI [3] | SMILES | effect on cell viability ([1]; 0.01, 0.1, and 1.0 μM, 5 hr) | concentration of maximal increase in MFI of BCMA staining ([1]; 0.01-1.0 μM tested, 5 hr) [µM] | soluble BCMA levels ([1]; 0.1 and 1.0 μM) | change in MFI of BCMA staining ([1]; all 4 cell lines and primary MM cells, 5 hr) | time to upregulation of BCMA after GSI exposure ([1]; time course) [h] | number of BCMA molecules on the cell surface [2] | CD38 receptor expression ([4]; U266 MM line, solubilized ATRA) | CD38 receptor expression ([4]; three MM cell lines (U266, H929 and L363)) | number of CD38 molecules on the cell surface [5] |
| --- | --- | --- | --- | --- | --- | --- | --- | --- | --- | --- |
| further facilitated blood clearance | CC(C)(C(=O)NCC(F)(F)C(F)(F)F)C(=O)N[C@@H]1C(=O)Nc2ccccc2-c2ccccc21 [R04929097] | did not affect cell viability | 1.0 | decline in soluble BCMA levels | marked increase | ≤ 1 | upregulates surface BCMA target expression | – | – | – |
| – | CC1=C(/C=C/C(C)=C/C=C/C(C)=C/C(=O)O)C(C)(C)CCC1 [ATRA, all-trans retinoic acid] | – | – | – | – | – | – | striking dose dependent increase in expression | dose dependent increase | upregulates surface CD38 target expression |
